Measurements from patent US8148572B2, “Compounds” (AstraZeneca AB, priority 2005, dated 2012).

Molecular target: T1, rhCRTh2 (Homo sapiens, UniProt Q9Y5Y4)
T1 construct: expressed in transfected cells; host or cells: HEK cells (membrane preparation)
T1 sequence (Q9Y5Y4 1-395): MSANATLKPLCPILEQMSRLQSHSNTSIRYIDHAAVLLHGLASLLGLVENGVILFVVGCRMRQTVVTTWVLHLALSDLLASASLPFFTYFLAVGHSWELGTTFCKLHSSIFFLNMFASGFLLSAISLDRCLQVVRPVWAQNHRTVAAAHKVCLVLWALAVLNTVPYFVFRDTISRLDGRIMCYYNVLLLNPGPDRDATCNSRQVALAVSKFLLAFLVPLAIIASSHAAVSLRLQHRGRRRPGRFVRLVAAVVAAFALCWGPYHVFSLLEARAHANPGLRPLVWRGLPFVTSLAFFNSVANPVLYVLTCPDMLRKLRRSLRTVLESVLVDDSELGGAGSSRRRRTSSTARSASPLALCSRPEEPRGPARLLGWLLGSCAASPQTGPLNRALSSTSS
Test: Ligand Binding Assay ([3H]PGD2 displacement, SPA beads coated with HEK cell membranes)
Conditions: [3H]PGD2 binding to HEK cell membranes containing CRTh2; read-out: pIC50 value (converted)
Procedure: [^3H]PGD2 was purchased from Perkin Elmer Life Sciences with a specific activity of 100-210 Ci/mmol. All other chemicals were of analytical grade.
HEK cells expressing rhCRTh2/Gα16 were routinely maintained in DMEM containing 10% Foetal Bovine Serum (HyClone), 1 mg/ml geneticin, 2 mM L-glutamine and 1% non-essential amino acids. For the preparation of membranes, the adherent transfected HEKcells were grown to confluence in two layer tissue culture factories (Fisher, catalogue number TKT-170-070E). Maximal levels of receptor expression were induced by addition of […] sodium butyrate for the last 18 hours of culture. The adherent cells were washed once with phosphate buffered saline (PBS, 50 ml per cell factory) and detached by the addition of 50 ml per cell factory of ice-cold membrane homogenisation buffer [20 mM HEPES (pH 7.4), 0.1 mM dithiothreitol, 1 mM EDTA, 0.1 mM phenyl methyl sulphonyl fluoride and 100 µg/ml bacitracin]. Cells were pelleted by centrifugation at 220×g for 10 minutes at 4° C., re-suspended in half the original volume of fresh membrane homogenisation buffer and disrupted using a Polytron homogeniser for 2×20 second bursts keeping the tube in ice at all times. […] The final pellet was re-suspended in 4 ml of membrane homogenisation buffer per cell factory used and the protein content determined. […]
All assays were performed in Corning clear bottomed, white 96-well NBS plates (Fisher). […] (The optimum coating concentrations were determined for each batch of membranes) The beads were pelleted by centrifugation (800×g for 7 minutes at 4° C.), washed once with assay buffer (50 mM HEPES pH 7.4 containing 5 mM magnesium chloride) and finally re-suspended in assay buffer at a bead concentration of 10 mg/ml. […]
Compounds and DK-PGD2 were dissolved in DMSO and diluted in the same solvent to 100× the required final concentration. […] The assay plate was incubated at room temperature for 2 hours and counted on a Wallac Microbeta liquid scintillation counter (1 minute per well).

SMILES | IC50
CS(=O)(=O)c1ccc(Oc2cc(CC(=O)O)ccc2Cl)c(C#N)c1 [Example 11, {4-chloro-3-[2-cyano-4-(methylsulfonyl)phenoxy]phenyl}acetic acid] | 8.91 nM
CS(=O)(=O)c1ccc(Oc2cc(CC(=O)O)ccc2Cl)c(F)c1 [Example 9, {4-chloro-3-[2-fluoro-4-(methylsulfonyl)phenoxy]phenyl}acetic acid] | 14.1 nM
CN(C)S(=O)(=O)c1ccc(Oc2cc(CC(=O)O)ccc2Cl)c(Cl)c1 [Example 7, (4-chloro-3-{2-chloro-4-[(dimethylamino)sulfonyl]phenoxy}phenyl)acetic acid] | 7.94 nM
